{"source": "patent US20250319115A1", "about": "“Compositions and Methods for Modulating Cytokines” (Flagship Pioneering Innovations VII, LLC, priority 2022, published 2025)", "molecules": {"B1": {"name": "SEQ ID NO: 3494: target protein of the Sequence Listing, secreted peptide (peptide, listed as Homo sapiens)", "chain": "MSYLPTNPPGSILTCWLGVSLGSHRSARGGSTIYGRLLPRRKDVWFSQAKDVPKYRGLLYLQS"}, "B2": {"name": "SEQ ID NO: 5631: target protein of the Sequence Listing, secreted peptide (peptide, listed as Homo sapiens)", "chain": "MMAQKSKFRVLFMSDPHGTAMPLTSAILESSRASLAAKQEDKCFTDIRNLKWKHFLEHTKQPP"}, "B3": {"name": "SEQ ID NO: 6517: target protein of the Sequence Listing, secreted peptide (peptide, listed as Homo sapiens)", "chain": "VALSLLTSQGRQRRAGPSTAFAALPATVATFSAMTESESLRTSRHADTALARVRRGAKFRGQARTRYCARARSHRFTPPSGA"}, "B4": {"name": "SEQ ID NO: 5537: target protein of the Sequence Listing, secreted peptide (peptide, listed as Homo sapiens)", "chain": "MQRLPAAFFRSFAAQGLGESVHINTPTSLSLRGRPFISSSGPGARARVTCAPCLHAARILCCFWRGLHR"}, "B5": {"name": "SEQ ID NO: 5931: target protein of the Sequence Listing, secreted peptide (peptide, listed as Homo sapiens)", "chain": "MSCGSRRGPSLASSLAWLQLQSGTRPFCSSSPPYFLSHGRRIPFSHPRKESALRATKEPRTHRTNTSLADLPSPAPAHL"}, "B6": {"name": "SEQ ID NO: 4566: target protein of the Sequence Listing, secreted peptide (peptide, listed as Homo sapiens)", "chain": "LRPRSAAFAPRYTRLVMRRSSRSFRLQCTGFPSSSAQSISAHLSNSMPSSLLTISRCPGMFAVRCPL"}, "B7": {"name": "SEQ ID NO: 3169: target protein of the Sequence Listing, secreted peptide (peptide, listed as Homo sapiens)", "chain": "MCHKGWHGPGVPHHVAFTPCKARLRPATQCQAHSSPRRKMVQAGSIPLAAASGRLCLTHAGWWRGAS"}}, "key": {"[1]": {"tested_on": "CD3/CD28 (TransAct) activated PBMCs", "assay": "PBMC cytokine release by Cytometric BeadArray, Inhibition format (peptide with anti-CD3/CD28 T-cell activator)", "format": "cell-based, human", "design": "key to Inhibition by Analyte: IL-1b / Inhibition by Analyte: IL-2 / Inhibition by Analyte: TNF / Inhibition by Analyte: IP-10 / Inhibition by Analyte: IL-10: X = a hit with significant activation or inhibition of relevant cytokine release", "procedure": "(§1) Peripheral Blood Mononuclear Cells were seeded+/−the T-cell activator […] and +/−peptides for 24-48 hours. Cytokines were measured from the supernatant after incubation by CBA Cytometer.\n(§2) Thawing PBMCs: PBMCs were thawed by pre-warming TexMACS media (Miltenyi Biotech) in 20 ml aliquots-1-50 ml conical per donor. After the media was warmed to 37° C., cells were removed from liquid nitrogen and brought to the tissue culture hood. For each donor, 1 ml of media from the warmed aliquot was added to the frozen vial and mixed up and down. The media plus thawed cells were then added back to the 50 ml conical. This was repeated until all the cells were thawed and added to the 50 ml tube. Continue with other donors if used. Spin cells for 5 min at 400×g. Supernatant was aspirated and cells resuspended at ˜10*10^6 cells/ml (see vial for cell number).\n(§3) PBMC Plating: Frozen PBMCs from normal, healthy, human volunteers (StemCell Technologies) were thawed and plated at 250,000 cells/well. After PBMCs were thawed and resuspended at […], cells were then counted (Countess III, Thermo Scientific) and adjusted based on counts to […]. Take the number of PBMCs determined by number of wells for the experiment, for example, 10 wells would need 2.5*10^6 cells total or 0.250 ml. The cells needed for the experiment are then transferred to another conical tube. Warmed TexMACS media is added so that the final concentration is 250,000 cells/190 ul media, for example, 10 wells would need 1.9 ml (190 ul×10 wells) of media total minus 0.250 ml of cells (1.9 ml-0.250 ml) or 1.65 ml of media added to the 0.250 ml of cells. Add 190 ul of cells plus media to the 96 well U-bottom plate. Place in incubator until dilutions are made and ready.\n(§4) Peptide Dilutions: Ideally, all peptides should be at a starting concentration of at least 10 mM, especially for those in DMSO (ATCC) to reach a final concentration of 1 uM (H2O) or 0.5 uM (DMSO). Dilutions of all test articles should be made at 20× the final concentration, for example, a final concentration of 1 uM peptide would need to be made at 20 uM.\n(§5) Reagent Dilution: Dilutions are made in TexMACS media, enough for 10 ul/well in triplicate (30 ul of a 20×). Activator—CD3/CD28 (TransAct; Miltenyi Biotech) or cytokine will be at 21× and added after the 45-minute incubation with peptides. Be sure to include relevant controls—Positive: TransAct+Cells, Negative: Vehicle+Cells. Dilutions should also be made in a ultra-low binding plate (Corning).\n(§6) Assay Procedure: Peptide Treatment: Start assay by thawing the cells and plating in a 96 well, U-bottom tissue culture plate (Corning) as described above. Cell plates are placed in a tissue culture incubator (5% CO2, 37° C.). While cells are in the incubator, start making dilutions (optimally 1 hr or less) as described above. Cell plates are removed from the incubator and 10 ul of the 20× dilutions are added to the relevant wells. After the addition of inhibitors, cell plates are placed in the tissue culture incubator for 45 minutes. The plates are removed from the incubator and 10 ul of 21× TransAct is added to the relevant wells*. Plates are then returned to the incubator and incubated for 24 hours. After 24 hours, plates are spun for 5 minutes at 400×g.\n(§7) * Activation: This assay can be run in two different formats—Activation and Inhibition. The procedure is the same except no TransAct is needed in the peptide wells for Activation. TransAct is only needed in the control wells. The purpose of this procedure is to determine the possible response from peptides alone.\n(§8) Cytometric BeadArray (CBA): After the spin, supernatants (˜150 ul) are transferred to a new, ultra-low binding U-bottom plate. Supernatants are then frozen at −20° C. until thawed for CBA (BD) to determine levels of human IL-2, TNFα, IL-1b, IP-10, IL-10, and IFNg. CBA was run according to the manufacturers protocol."}, "[2]": {"tested_on": "Peripheral Blood Mononuclear Cells", "assay": "PBMC cytokine release by Cytometric BeadArray, Activation format (peptide applied to PBMCs alone)", "format": "cell-based, human", "design": "key: X = a hit with significant activation or inhibition of relevant cytokine release", "details": "24 hours, supernatant CBA", "procedure": "as §1, §2, §3, §4, §5, §6, §7, §8"}, "[3]": {"details": "peptide applied with anti-CD3/CD28 T-cell activator, 24 hours, supernatant CBA"}}, "data": [{"molecule": "SEQ ID NO: 5862: target protein of the Sequence Listing, secreted peptide (MESRTLLLLFSGAVALIQTWADYNYNQGRNDLIFTLQLWKRQ; listed as Homo sapiens)", "values": [{"measurement": "Inhibition by Analyte: IL-1b", "setting": "[1]; [3]", "result": "X"}]}, {"molecule": "SEQ ID NO: 6295: target protein of the Sequence Listing, secreted peptide (MWWKTPCWWTPSTTATSSSAEARSCGRLLKSMAG; listed as Homo sapiens)", "values": [{"measurement": "Activation by Analyte: IP-10", "setting": "[2]", "result": "X"}]}, {"molecule": "SEQ ID NO: 5843: target protein of the Sequence Listing, secreted peptide (MGGKSWLFFYSLVFCALLPLPRREDPFKLF; listed as Homo sapiens)", "values": [{"measurement": "Inhibition by Analyte: IL-1b", "setting": "[1]; [3]", "result": "X"}]}, {"molecule": "SEQ ID NO: 4174: target protein of the Sequence Listing, secreted peptide (MRSPLSASALLLWSSSVARAFSSPSLLMAVPSPTCSRY; listed as Homo sapiens)", "values": [{"measurement": "Inhibition by Analyte: IL-1b", "setting": "[1]; [3]", "result": "X"}, {"measurement": "Inhibition by Analyte: IL-10", "setting": "[1]; [3]", "result": "X"}, {"measurement": "Inhibition by Analyte: IP-10", "setting": "[1]; [3]", "result": "X"}, {"measurement": "Inhibition by Analyte: TNF", "setting": "[1]; [3]", "result": "X"}]}, {"molecule": "SEQ ID NO: 6518: target protein of the Sequence Listing, secreted peptide (MSFDHPEKNGPWPADPINLPSHG; listed as Homo sapiens)", "values": [{"measurement": "Inhibition by Analyte: IL-2", "setting": "[1]; [3]", "result": "X"}, {"measurement": "Inhibition by Analyte: TNF", "setting": "[1]; [3]", "result": "X"}]}, {"molecule": "SEQ ID NO: 3462: target protein of the Sequence Listing, secreted peptide (METSCSLWVSSELFCRSVKVFFCLLALHLSALPHSSWTQDKNLGLAGMVELK; listed as Homo sapiens)", "values": [{"measurement": "Activation by Analyte: IP-10", "setting": "[2]", "result": "X"}]}, {"molecule": "SEQ ID NO: 5848: target protein of the Sequence Listing, secreted peptide (MARPLSLAAAGAPDLLFTALCSLLIEAQPLRPFDLQVLGDPQPRARTP; listed as Homo sapiens)", "values": [{"measurement": "Activation by Analyte: IL-2", "setting": "[2]", "result": "X"}]}, {"molecule": "SEQ ID NO: 5627: target protein of the Sequence Listing, secreted peptide (MSEVATLLFSQTALASLESVHPAGHKLWMRNLRQVTSP; listed as Homo sapiens)", "values": [{"measurement": "Inhibition by Analyte: IL-2", "setting": "[1]; [3]", "result": "X"}, {"measurement": "Inhibition by Analyte: TNF", "setting": "[1]; [3]", "result": "X"}]}, {"molecule": "SEQ ID NO: 4615: target protein of the Sequence Listing, secreted peptide (MTAFGLGIPTFLVMQPSGSQPRFPALTQNGVALVRTPLTSVYLRVRICRVLGPRSQPS; listed as Homo sapiens)", "values": [{"measurement": "Inhibition by Analyte: IL-1b", "setting": "[1]; [3]", "result": "X"}, {"measurement": "Inhibition by Analyte: TNF", "setting": "[1]; [3]", "result": "X"}, {"measurement": "Activation by Analyte: IL-10", "setting": "[2]", "result": "X"}, {"measurement": "Activation by Analyte: IP-10", "setting": "[2]", "result": "X"}]}, {"molecule": "SEQ ID NO: 3585: target protein, anti-inflammatory cytokine modulator, secreted peptide (VAEPRRGHLKAALASLGGAAPAAATNGSPPLFK; listed as Homo sapiens)", "values": [{"measurement": "release of TNF-alpha from activated PBMCs", "setting": "[1]; CD3/CD28 (TransAct) activated PBMCs, FIG. 7", "result": "significantly blocks"}, {"measurement": "release of IL-1b from activated PBMCs", "setting": "[1]; CD3/CD28 (TransAct) activated PBMCs, FIG. 8", "result": "does not block"}, {"measurement": "Inhibition by Analyte: IL-1b", "setting": "[1]; [3]", "result": "X"}, {"measurement": "Inhibition by Analyte: IL-2", "setting": "[1]; [3]", "result": "X"}, {"measurement": "Inhibition by Analyte: TNF", "setting": "[1]; [3]", "result": "X"}]}, {"molecule": "SEQ ID NO: 1184: target protein of the Sequence Listing, synthesized peptide (LEMEGGCSPPIPHAGHRWKCQTVRVHA; listed as Homo sapiens)", "values": [{"measurement": "Inhibition by Analyte: IL-1b", "setting": "[1]; [3]", "result": "X"}, {"measurement": "Inhibition by Analyte: IL-2", "setting": "[1]; [3]", "result": "X"}, {"measurement": "Inhibition by Analyte: IP-10", "setting": "[1]; [3]", "result": "X"}, {"measurement": "Inhibition by Analyte: TNF", "setting": "[1]; [3]", "result": "X"}]}, {"molecule": "SEQ ID NO: 5730: target protein of the Sequence Listing, secreted peptide (MVSHRKDWRRVNLRFSSCLLLSICLDDKPSADELCFWTDHGRSQLTCPSLGVSQGHARSS; listed as Homo sapiens)", "values": [{"measurement": "Activation by Analyte: IP-10", "setting": "[2]", "result": "X"}]}, {"molecule": "B1", "values": [{"measurement": "Activation by Analyte: IP-10", "setting": "[2]", "result": "X"}]}, {"molecule": "B2", "values": [{"measurement": "Activation by Analyte: IP-10", "setting": "[2]", "result": "X"}]}, {"molecule": "B3", "values": [{"measurement": "Activation by Analyte: IP-10", "setting": "[2]", "result": "X"}]}, {"molecule": "B4", "values": [{"measurement": "Activation by Analyte: IP-10", "setting": "[2]", "result": "X"}]}, {"molecule": "B5", "values": [{"measurement": "Activation by Analyte: IL-1b", "setting": "[2]", "result": "X"}]}, {"molecule": "B6", "values": [{"measurement": "Activation by Analyte: IP-10", "setting": "[2]", "result": "X"}]}, {"molecule": "B7", "values": [{"measurement": "Activation by Analyte: IP-10", "setting": "[2]", "result": "X"}]}]}
